# Test results published in EP1024807B1, “USE OF THE COMPOUND 2-METHOXYPHENYL-1-METHYL-5P-METHYLBENZOYL-PYRROL-2-ACETAMIDO ACETATE FOR THE PRODUCTION OF AN ANTI-INFLAMMATORY DRUG WITH PREVENTION OF GASTRIC HYPERSECRETION AND RENAL IMPAIRMENT” (MEDOSAN Ricerca S.r.l., priority 1997, dated 1999).
# “Also recorded” adds a separate entry of the source.
# Legend:
# rat bone marrow = assay: Micronucleus test; conditions: in vivo
# COX1 (cyclooxygenase 1) = target: T1, COX1 (cyclooxygenase 1) (Rattus norvegicus, UniProt Q63921); assay: Pharmacological studies in rats: cyclooxygenase inhibition; conditions: in vivo
# T1 construct: the pharmacological studies conducted in rats; from tissue; host or cells: rat (in vivo; tissue not given)
# [1] = test system: human lymphocites cultivated in vitro; assay: Chromosome aberrations in lymphocytes in vitro; format: cell-based
# gastric mucosa = assay: Gastroprotective action in vivo with an H1 receptor inhibitor; design: species or system rat; conditions: in the presence of an inhibitor of H1 receptors, fig. 17 and 18
# Text: In the in vivo experimentation, evaluated as effect of the product both on gastric mucosal secretion and on the healthy condition of the mucosa itself, it was noted that in the presence of an inhibitor of H1 receptors (therefore a typical antihistamine agent), the gastroprotective effect of amtolmetin guacyl drops out. […] All of this constitutes a precise forewarning of the association of amtolmetin guacyl with H1 receptor inhibiting substances on pain of loss of the gastroprotective properties of the former (fig. 17 and 18).
# [2] = test system: rat isolated stomach strips; assay: Gastric motility in isolated stomach strips, acetylcholine and serotonin as agonists; conditions: acetilcholine and serotonin as agonists
# Rats [3] = assay: Carrageenan pleurisy, exudate volume at 4 hours; format: in vivo; conditions: for Exudate volume: 4 hour; for decrease exudate volume: compared to gum tragacanth control
# Experimental: Compounds were administered orally 1 hour prior to and 1 hour post pleurisy induction in a volume of 0.5 ml 1% gum tragacanth. Indomethacin was used at 3 mg/kg. MED 15 was used at 25, 50 and 100 mg/kg.
# A 1% solution of carrageenan in sterile saline was prepared. The solution was placed in an incubator at 37°C for half an hour to allow complete hydration of the carrageenan. The solution was then mixed to homogeneity.
# A 21Gx40mm syringe needle was reduced in length to 5mm and fitted to a 1ml syringe containing the irritant. Rats were lightly anaesthetised with halothane. Each animal was placed on its left side. The skin over the thorax was lifted with and a 1cm incision made through the skin with a pair of scissors. The wound was opened to expose the underlying muscle. Using a scalpel, a 2-3mm incision was made into the muscle of the 5th-6th intercostal space. A volume of 0.15ml of carrageenan solution was then injected into the pleural cavity. The wound was closed with a 11mm Michel clip and the animal allowed to recover from the anaesthetic. Groups of animals were killed 4 hours after pleurisy induction.
# Lavage solution: One part of 3.15% trisodium citrate solution, mixed with nine parts of Hank's balanced salt solution.
# Rats were killed by over exposure to carbon dioxide. For each rat the skin over the thorax was moistened with IMS alcohol. The skin over the sternum was then lifted and a 5cm cut made, to expose the musculature of the upper abdomen and thoracic cavity. The muscle overlying the xiphisternum was lifted with tissue forceps and a 1cm cut made through the muscle to reveal the cartilage. This was then lifted and the diaphragm perforated just beneath the cartilage. Two cuts were then made through the rib cage either side of the cartilage to form a flap which could be folded back to expose the thoracic cavity.
# Using a syringe, 1ml of lavage fluid was introduced into the thoracic cavity. The fluid was aspirated 2-3 times with a 3ml pastette to wash the cavity, before being collected into separate 10ml conical-based plastic test-tubes. Any blood contaminated fluids were rejected.
# The mass of each tube with fluid was determined. By subtracting the mass of an empty tube from these values, and assuming a density for the fluid of 1g/cm^3, the fluid volume was quantified.
# Results were analysed by ANOVA followed by Bonferroni T-test. Values of p<0.05 were considered significant.
# Dosing was one hour prior to and one hour post pleurisy induction and inflammation was assessed at 4 hours.
# Anaesthetized Rat = assay: Drug safety trials: blood pressure and cardiovascular system; conditions: in vivo
# Text: From a toxicological viewpoint the drug offers an excellent torability profile.
# [4] = test system: post-traumatic arthralgia; assay: Clinical comparison in post-traumatic arthralgia; format: in vivo, man
# Text: The same can be said in the treatment of post-traumatic arthralgia.
# [5] = test system: guinea-pig isolated ileum; assay: Intestinal motility in isolated ileum with various agonists; conditions: all of the traditional agonists (histamine, acetylcholine, serotonin)
# Text: In parallel we also studied the possible effect on intestinal motility in the guinea-pig isolated ileum (b.r. No. 29) using various agonists (fig. 7, 8 and 9).
# [6] = test system: patients with rheumatoid arthritis in the active phase; assay: Clinical trials in rheumatoid arthritis; format: in vivo, man; conditions: 150 patients, 30 days; versus ibuprofen, indomethacin, piroxicam, tolmetin; listed as Amtolmetin guacyl
# Text: Amtolmetin guacyl was compared with ibuprofen, indomethacin, piroxicam and tolmetin.
# platelet aggregation = assay: Platelet aggregation
# Text: For all of these reasons the drug was expected to induce gastric damage and inhibit platelet aggregation.
# post-operative pain = assay: Clinical trials in post-operative pain; format: in vivo, man
# Experimental: As reported in Table 14, the analgesic properties of amtolmetin guacyl were tested in postoperative pain with good results. […] The peak effect is obtained only after 2 hours, and it is maintained for 6 hours.
# Saccharomycetes pombe Pl = format: cell-based
# [7] = Persistence of intact molecule in gastric and intestinal walls; format: in vivo; conditions: after oral administration in the rat
# Experimental: The presence of the vanilloid radical, essential to the expression of the gastroprotective mechanism, is guaranteed by the prolonged persistence of high amounts of intact amtolmetin guacyl molecule in the gastric and intestinal walls (at least 2 hours after oral administration in the rat).
# rat = assay: Carcinogenesis studies, gavage over the life-span; format: in vivo; conditions: gavage for a period covering the animal's life-span
# Rats [8] = assay: Diuresis in normally hydrated rats; format: in vivo
# Experimental: In the course of various studies conducted on animals to show the lack of renal impairment, a test was carried out to compare the diuresis in normally hydrated rats treated orally for 8 consecutive days with amtolmeting guacyl and diclofenac, which is also a NSAID. […] It is to be stressed that the behaviour of diclofenac is completely in line with the behaviour of a NSAID as known in the art, that is to say to markedly reduce the diuresis, while that of amtolmeting guacyl is completely unforeseeable.
# Repeated doses (one per day) for 8 days increased diuresis in the treated rats by 35% (see fig. 13).
# T1 sequence (Q63921 27-602): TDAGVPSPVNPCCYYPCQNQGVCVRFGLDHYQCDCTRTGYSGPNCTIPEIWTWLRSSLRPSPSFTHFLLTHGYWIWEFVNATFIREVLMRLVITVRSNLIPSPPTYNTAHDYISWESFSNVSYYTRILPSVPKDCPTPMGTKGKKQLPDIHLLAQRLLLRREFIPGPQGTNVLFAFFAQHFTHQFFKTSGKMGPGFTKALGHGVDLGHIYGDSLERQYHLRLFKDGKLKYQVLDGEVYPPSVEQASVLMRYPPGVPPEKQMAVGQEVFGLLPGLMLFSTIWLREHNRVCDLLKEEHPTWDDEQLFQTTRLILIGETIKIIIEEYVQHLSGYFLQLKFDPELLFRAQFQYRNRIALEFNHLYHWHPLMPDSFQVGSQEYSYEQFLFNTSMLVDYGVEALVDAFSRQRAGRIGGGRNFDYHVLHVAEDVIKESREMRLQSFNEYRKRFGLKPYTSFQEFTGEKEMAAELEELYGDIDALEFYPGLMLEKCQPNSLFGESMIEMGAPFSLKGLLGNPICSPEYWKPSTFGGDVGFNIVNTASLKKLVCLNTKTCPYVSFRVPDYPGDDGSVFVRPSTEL
smiles,measurement,setting,value
"COc1ccccc1OC(=O)CNC(=O)Cc1ccc(C(=O)c2ccc(C)cc2)n1C [MED 15, 2-methoxyphenyl-1-methyl-5p-methylbenzoylpyrrol-2-acetamido acetate]",micronucleus test,rat bone marrow,absence of amtolmetin guacyl-related damage
same,inhibition of COX1,COX1 (cyclooxygenase 1),inhibition
same,chromosomic aberrations,[1],absence of amtolmetin guacyl-related damage
same,gastroprotective effect,gastric mucosa,drops out
same,motility,[2],down-regulation of motility
same,Exudate volume,Rats [3]; 25mg/kg orally 1 hour prior to and 1 hour post induction,0.84 ± 0.09 mL
same,decrease exudate volume,Rats [3]; 25mg/kg,11%
same,Exudate volume,Rats [3]; 50mg/kg orally 1 hour prior to and 1 hour post induction,0.74 ± 0.06 mL
same,decrease exudate volume,Rats [3]; 50mg/kg,21%
same,Exudate volume,Rats [3]; 100mg/kg orally 1 hour prior to and 1 hour post induction,0.53 ± 0.05 mL
same,decrease exudate volume,Rats [3]; 100mg/kg,44%
same,effects on blood pressure and on the cardiovascular system,Anaesthetized Rat,absence of effects
same,duration of effect,[4],6 h
same,latency time,[4],20 min
same,time to reach peak effect,[4],1 h
same,motility,[5],decrease in motility
same,Evaluation of antiphlogistic activity,[6],significantly more rapid and marked anti-inflammatory activity compared to the reference NSAIDs; also recorded: Amtolmetin guacyl demonstrated statistical significant activity more rapid and more marked when compared to the reference NSAIDs in rheumatoid arthritis
same,platelet antiaggregating properties,platelet aggregation,significant platelet antiaggregating properties
same,time at which the effect is already evaluable,post-operative pain; following administration,30 '
same,antalgic effect,post-operative pain; post-operative pain,statistically significant
same,time the effect is maintained,post-operative pain; post-operative pain,6 h
same,time to peak effect,post-operative pain; post-operative pain,2 h
same,forward mutation,Saccharomycetes pombe Pl,absence of amtolmetin guacyl-related damage
same,persistence of high amounts of intact molecule in the gastric and intestinal walls,[7],at least 2 hours
same,Carcinogenesis,rat,innocuity
same,increased diuresis,Rats [8]; repeated doses (one per day) for 8 days,35%
same,increased diuresis,"Rats [8]; single dose, average",10%
same,diuresis,"Rats [8]; treated orally for 8 consecutive days, fig. 13",definite increase in diuresis
